Experimental data as given in US9133125B2, “Morphan and morphinan analogues, and methods of use” (priority 2013, dated 2015).

Test system: Male Sprague-Dawley rats
Test: Thermal pain assay (rodent hot plate model)
Assay type: in vivo
Details: rat, dose of 10 mg/kg, subcutaneous

## Cl.NC(=O)c1ccc2c(c1O)[C@]13CCN(CC4CCC4)[C@H](C2)[C@]1(O)CC[C@H](O)C3 [Compound C, (4bR,6S,8aS,9R)-11-(cyclobutylmethyl)-4,6,8a-trihydroxy-6,7,8,8a,9,10-hexahydro-5H-9,4b-(epiminoethano)phenanthrene-3-carboxamide]
  antinociceptive effect, hot plate: no antinociceptive effect

## Cl.NC(=O)c1ccc2c(c1O)[C@]13CCN(CC4CCC4)[C@H](C2)[C@]1(O)CC[C@@H](O)C3 [Compound D, (4bR,6R,8aS,9R)-11-(cyclobutylmethyl)-4,6,8a-trihydroxy-6,7,8,8a,9,10-hexahydro-5H-9,4b-(epiminoethano)phenanthrene-3-carboxamide]
  antinociceptive effect, hot plate: no antinociceptive effect
